Measurements from US20220073536A1 (Rigel Pharmaceuticals, Inc., priority 2003, published 2022).
Counter-ions that a name gives are not always drawn. Blank lines part the entries; values can stand above or below the compound they belong to.

How the values were obtained:
[1] = system: cultured human mast cells (CHMC); assay: CHMC low cell density IgE activation: tryptase assay; format: cell-based; details: IgE activation
Procedure, shortened: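 Anti-IgE-driven degranulation of cultured human mast cells at low density, 1000–1500 cells/well, was induced over 30 min at 37 °C. It was scored by supernatant tryptase activity on a fluorogenic substrate.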

[2] = system: cultured human mast cells (CHMC); assay: CHMC low cell density ionomycin activation: tryptase assay; format: cell-based; details: 3 pt, read-out: LD Tryptase, CHMC, Iono, 3 pt
[3] = Homo sapiens, Mast cell, low cell density CHMC, tryptase release, 3 pt, read-out: LD Tryptase, CHMC, IgE, 3 pt
[4] = Homo sapiens, Mast cell, low cell density CHMC, tryptase release, 8 pt, read-out: LD Tryptase, CHMC, IgE, 8 pt
[5] = Homo sapiens, Mast cell, low cell density CHMC, tryptase release
[6] = Homo sapiens, Mast cell, low cell density, 3 pt, read-out: LD Tryptase, CHMC, IgE, 3 pt
[7] = Homo sapiens, Mast cell, low cell density, 8 pt, read-out: LD Tryptase, CHMC, IgE, 8 pt
[8] = Homo sapiens, Mast cell, low cell density
[9] = low cell density, 3 pt, read-out: LD Tryptase, CHMC, IgE, 3 pt
[10] = low cell density CHMC, tryptase readout, 3 pt, read-out: LD Tryptase, CHMC, IgE, 3 pt
[11] = low cell density CHMC, tryptase readout, 8 pt, read-out: LD Tryptase, CHMC, IgE, 8 pt
[12] = low cell density CHMC, tryptase readout
[13] = Homo sapiens, Mast cell, low cell density CHMC, tryptase readout, 3 pt, read-out: LD Tryptase, CHMC, IgE, 3 pt
[14] = Homo sapiens, Mast cell, low cell density CHMC, tryptase readout, 8 pt, read-out: LD Tryptase, CHMC, IgE, 8 pt
[15] = Homo sapiens, Mast cell, low cell density CHMC, tryptase readout

- IC50 [1, 3]: < 10 µM
- IC50 [1, 4]: < 10 µM
- IC50 [2, 5]: > 10 µM
Compound: CS(=O)(=O)NCCCn1ncc2cc(Nc3ncc(F)c(Nc4ccc(Cl)c(Cl)c4)n3)ccc21 [Compound 833, N4-(3,4-Dichlorophenyl)-5-fluoro-N2-[1-[3-(N-methylsulfonylamino)propyl]indazol-5-yl]-2,4-pyrimidinediamine]

- IC50 [1, 3]: > 10 µM
- IC50 [1, 4]: < 10 µM
- IC50 [2, 5]: > 10 µM
Compound: CC1(C)Oc2ccc(Nc3nc(Nc4ccc5c(cnn5CCCNS(C)(=O)=O)c4)ncc3F)cc2NC1=O [Compound 834, N4-(2,2-Dimethyl-3-oxo-4H-benz[1,4]oxazin-6-yl)-5-fluoro-N2-[1-[3-(N-methylsulfonylamino)propyl]indazol-5-yl]-2,4-pyrimidinediamine]

- IC50 [1, 3]: < 10 µM
- IC50 [1, 4]: < 10 µM
- IC50 [2, 5]: > 10 µM
Compound: C[C@@H]1Oc2ccc(Nc3nc(Nc4ccc5c(cnn5CCCNS(C)(=O)=O)c4)ncc3F)cc2NC1=O [Compound 835, (S)-5-Fluoro-N4-(2-methyl-3-oxo-2H,4H-benz[1,4]oxazin-6-yl)-N2-[1-(3-(N-methylsulfonylamino)propyl)indazol-5-yl]-2,4-pyrimidinediamine]

- IC50 ([1]; low cell density CHMC, tryptase release, 3 pt, read-out: LD Tryptase, CHMC, IgE, 3 pt): < 10 µM
- IC50 ([1]; low cell density CHMC, tryptase release, 8 pt, read-out: LD Tryptase, CHMC, IgE, 8 pt): < 10 µM
- IC50 ([2]; low cell density CHMC, tryptase release): > 10 µM
Compound: CC1(C)Oc2ccc(Nc3nc(Nc4ccc5c(cnn5CCCNS(C)(=O)=O)c4)ncc3F)nc2NC1=O [Compound 836, N4-(2,2-Dimethyl-3-oxo-4H-5-pyrid[1,4]oxazin-6-yl)-5-fluoro-N2-[1-[3-(N-methylsulfonylamino)propyl]indazol-5-yl]-2,4-pyrimidinediamine]

- IC50 [1, 4]: < 10 µM
- IC50 [2, 5]: < 10 µM
Compound: Cc1nc2ccc(Nc3ncc(F)c(Nc4ccc5c(n4)NC(=O)C(C)(C)O5)n3)cc2[nH]1 [Compound 845, N4-(2,2-Dimethyl-3-oxo-4H-5-pyrid[1,4]oxazin-6-yl)-5-fluoro-N2-(2-methyl-3H-benzimidazol-5-yl)-2,4-pyrimidinediamine]

- IC50 [1, 6]: < 10 µM
- IC50 [1, 7]: < 10 µM
- IC50 [2, 8]: < 10 µM
Compound: CCOc1c(C)cc(Nc2ncc(F)c(Nc3ccc4c(c3)NC(=O)C(C)(C)O4)n2)cc1Cl [Compound 1008, N2-(3-Chloro-4-ethoxy-5-methylphenyl)-N4-(2,2-dimethyl-3-oxo-4H-benz[1,4]oxazin-6-yl)-5-fluoro-2,4-pyrimidinediamine]

- IC50 [1, 13]: < 10 µM
- IC50 [1, 14]: < 10 µM
- IC50 [2, 15]: > 10 µM
Compound: CC1(C)Oc2ccc(Nc3nc(Nc4ccc(-c5ncco5)cc4)ncc3F)cc2NC1=O [Compound 1011, N4-(2,2-Dimethyl-3-oxo-4H-benz[1,4]oxazin-6-yl)-5-fluoro-N2-[4-(oxazol-2-yl)phenyl]-2,4-pyrimidinediamine]

- IC50 [1, 10]: < 10 µM
- IC50 [2, 12]: > 10 µM
Compound: CN1C(=O)C(C)(C)Oc2ccc(Nc3nc(Nc4ccc(-c5ncco5)cc4)ncc3F)nc21 [Compound 1013, 5-Fluoro-N2-[4-(oxazol-2-yl)phenyl]-N4-[3-oxo-2,2,4-trimethyl-5-pyrid[1,4]oxazin-6-yl]-2,4-pyrimidinediamine]

- IC50 [1, 10]: < 10 µM
- IC50 [1, 11]: < 10 µM
- IC50 [2, 12]: < 10 µM
Compound: CCOC(=O)COc1c(C)cc(Nc2ncc(F)c(Nc3ccc4c(c3)NC(=O)C(C)(C)O4)n2)cc1Cl [Compound 1014, N2-[3-Chloro-4-ethoxycarbonylmethyleneoxy-5-methylphenyl]-N4-(2,2-dimethyl-3-oxo-4H-benz[1,4]oxazin-6-yl)-5-fluoro-2,4-pyrimidinediamine]

- IC50 [1, 13]: < 10 µM
- IC50 [1, 14]: < 10 µM
- IC50 [2, 15]: > 10 µM
Compound: CC1(C)Oc2ccc(Nc3nc(Nc4cccc(-c5cnco5)c4)ncc3F)cc2NC1=O [Compound 1016, N4-(2,2-Dimethyl-3-oxo-4H-benz[1,4]oxazin-6-yl)-5-fluoro-N2-[3-(oxazol-5-yl)phenyl]-2,4-pyrimidinediamine]

Further lines, the compound ahead of its results:

Compound: CC1(C)Oc2ccc(Nc3nc(Nc4ccc5[nH]c(C(F)(F)F)nc5c4)ncc3F)nc2NC1=O [Compound 846, N4-(2,2-Dimethyl-3-oxo-4H-5-pyrid[1,4]oxazin-6-yl)-5-fluoro-N2-(2-trifluoromethyl-1H-benzimidazol-5-yl)-2,4-pyrimidinediamine]
- IC50 [1, 4]: < 10 µM
- IC50 [2, 5]: < 10 µM

Compound: Cn1ncc2ccc(Nc3ncc(F)c(Nc4ccc5c(c4)NC(=O)C(C)(C)O5)n3)cc21 [Compound 993, N4-(2,2-Dimethyl-3-oxo-4H-benz[1,4]oxazin-6-yl)-5-fluoro-N2-(1-methylindazol-6-yl)-2,4-pyrimidinediamine p-Toluenesulfonic Acid Salt]
- IC50 [1, 6]: < 10 µM
- IC50 [1, 7]: < 10 µM
- IC50 [2, 8]: < 10 µM

Compound: Cc1cc(Nc2ncc(F)c(Nc3ccc4c(c3)OCCO4)n2)cc(Cl)c1O [Compound 995, N2-(3-Chloro-4-hydroxy-5-methylphenyl)-N4-(3,4-ethylenedioxyphenyl)-5-fluoro-2,4-pyrimidinediamine]
- IC50 [1, 6]: < 10 µM
- IC50 [1, 7]: < 10 µM
- IC50 [2, 8]: < 10 µM

Compound: Cc1cc(Nc2ncc(F)c(Nc3ccc4c(n3)NC(=O)C(C)(C)O4)n2)cc(Cl)c1O [Compound 996, N2-(3-Chloro-4-hydroxy-5-methylphenyl)-N4-(2,2-dimethyl-3-oxo-4H-5-pyrid[1,4]oxazin-6-yl)-5-fluoro-2,4-pyrimidinediamine]
- IC50 [1, 9]: < 10 µM
- IC50 ([1]; low cell density, 8 pt, read-out: LD Tryptase, CHMC, IgE, 8 pt): < 10 µM
- IC50 ([2]; low cell density): > 10 µM

Compound: COc1c(C)cc(Nc2ncc(F)c(Nc3ccc4c(n3)NC(=O)C(C)(C)O4)n2)cc1C [Compound 997, N2-(3,5-Dimethyl-4-methoxyphenyl)-N4-(2,2-dimethyl-3-oxo-4H-5-pyrid[1,4]oxazin-6-yl)-5-fluoro-2,4-pyrimidinediamine]
- IC50 [1, 6]: < 10 µM
- IC50 [1, 7]: < 10 µM
- IC50 [2, 8]: > 10 µM

Compound: COc1c(C)cc(Nc2ncc(F)c(Nc3ccc4c(c3)OCCO4)n2)cc1C [Compound 998]
- IC50 [1, 6]: < 10 µM
- IC50 [1, 7]: < 10 µM
- IC50 [2, 8]: > 10 µM

Compound: COc1c(C)cc(Nc2ncc(F)c(Nc3ccc4c(c3)OCCO4)n2)cc1Cl [Compound 999]
- IC50 [1, 6]: < 10 µM
- IC50 [1, 7]: < 10 µM
- IC50 [2, 8]: < 10 µM

Compound: Cc1ccccc1Nc1ncc(F)c(Nc2ccc3c(n2)NC(=O)C(C)(C)O3)n1 [Compound 1004, N4-(2,2-Dimethyl-3-oxo-4H-5-pyrid[1,4]oxazin-6-yl)-5-fluoro-N2-(2-methylphenyl)-2,4-pyrimidinediamine]
- IC50 [1, 9]: < 10 µM
- IC50 ([2]; low cell density): > 10 µM

Compound: CN1C(=O)C(C)(C)Oc2ccc(N(C)c3nc(Cl)ncc3F)nc21 [Compound 1005, 2-Chloro-5-fluoro-N4-methyl-N4-(3-oxo-2,2,4-trimethyl-5-pyrid[1,4]oxazin-6-yl)-4-pyrimidineamine]
- IC50 [1, 9]: < 10 µM
- IC50 ([2]; low cell density): > 10 µM

Compound: CN1C(=O)C(C)(C)Oc2ccc(Nc3nc(Cl)ncc3F)nc21 [Compound 1006, 2-Chloro-5-fluoro-N4-(3-oxo-2,2,4-trimethyl-5-pyrid[1,4]oxazin-6-yl)-4-pyrimidineamine]
- IC50 [1, 9]: > 10 µM
- IC50 ([2]; low cell density): > 10 µM

Compound: COc1c(C)cc(Nc2ncc(F)c(Nc3ccc4c(n3)N(C)C(=O)C(C)(C)O4)n2)cc1Cl [Compound 1009, N2-(3-Chloro-4-methoxy-5-methylphenyl)-5-fluoro-N4-(3-oxo-2,2,4-trimethyl-5-pyrid[1,4]oxazin-6-yl)-2,4-pyrimidinediamine]
- IC50 [1, 10]: < 10 µM
- IC50 [1, 11]: < 10 µM
- IC50 [2, 12]: > 10 µM

Compound: CCOc1c(C)cc(Nc2ncc(F)c(Nc3ccc4c(n3)NC(=O)C(C)(C)O4)n2)cc1Cl [Compound 1010, N2-(3-Chloro-4-ethoxy-5-methylphenyl)-N4-(2,2-dimethyl-3-oxo-4H-5-pyrid[1,4]oxazin-6-yl)-5-fluoro-2,4-pyrimidinediamine]
- IC50 [1, 10]: < 10 µM
- IC50 [2, 12]: > 10 µM

Compound: CN1C(=O)C(C)(C)Oc2ccc(Nc3nc(Nc4cccc(-c5ncco5)c4)ncc3F)nc21 [Compound 1012, 5-Fluoro-N2-[3-(oxazol-2-yl)phenyl]-N4-[3-oxo-2,2,4-trimethyl-5-pyrid[1,4]oxazin-6-yl]-2,4-pyrimidinediamine]
- IC50 [1, 10]: < 10 µM
- IC50 [1, 11]: < 10 µM
- IC50 [2, 12]: > 10 µM

Compound: CNC(=O)COc1cccc(Nc2ncc(F)c(Nc3ccc4c(n3)N(C)C(=O)C(C)(C)O4)n2)c1 [Compound 1015, 5-Fluoro-N2-[3-(N-methylamino)carbonylmethyleneoxyphenyl]-N4-[3-oxo-2,2,4-trimethyl-5-pyrid[1,4]oxazin-6-yl]-2,4-pyrimidinediamine]
- IC50 [1, 10]: < 10 µM
- IC50 [1, 11]: < 10 µM
- IC50 [2, 12]: > 10 µM

Compound: CN1C(=O)C(C)(C)Oc2ccc(Nc3nc(Nc4cccc(-c5cnco5)c4)ncc3F)nc21 [Compound 1017, 5-Fluoro-N2-[3-(oxazol-5-yl)phenyl]-N4-[3-oxo-2,2,4-trimethyl-5-pyrid[1,4]oxazin-6-yl]-2,4-pyrimidinediamine]
- IC50 [1, 10]: < 10 µM
- IC50 [1, 11]: < 10 µM
- IC50 [2, 12]: > 10 µM
